Experimental data published in patent publication US20250353861A1, “DERIVATIVE OF ARTEMISININ AND PREPARATION METHOD AND USE THEREOF” (SHANGHAI INNOFORTUNE BIOTECH CO. LTD., priority 2022, published 2025).

Columns and labels:
[1] = Testing of solubility at different pH values
Procedure: First, a series of solutions with pH-5-8 were prepared using phosphoric acid and NaOH.

[2] = Testing of stability at different pH values (HPLC); assay type: physicochemical
Procedure: 10 mg of the sample was weighed and 10 mL of an aqueous solution at a different pH value was added, followed by ultrasonic dissolving and filtration. HPLC testing was then performed.

[3] = system: corneal neovascularization in New Zealand rabbits with alkali burn; test: Effects on corneal neovascularization in New Zealand rabbits with alkali burn; assay type: in vivo; conditions: 1% eye drops 3 times a day; for Formation of new blood vessels in the cornea (slit-lamp photographs, FIG. 2), comparison of groups: preliminary conclusion from the figures; for Number of New Zealand rabbit eyes with appearance of fluorescein-stained spots / Number of New Zealand rabbit eyes with conjunctival congestion / Number of New Zealand rabbit eyes with corneal edema / Number of New Zealand rabbit eyes with neovascularization: 2 drops, 12 eyes per group (10 for SZY1905-P32)
Procedure: Twenty-four New Zealand rabbits were first given intravenous anesthesia with a chloralhydrate solution at a dose of about 0.5 mL/kg, followed by ocular surface anesthesia with 0.5% tetracaine hydrochloride eye drops. A piece of filter paper with a diameter of about 8 mm was immersed in 1 mol/L NaOH solution for 1 minute to reach saturation. The saturated filter paper was placed in the center of the cornea for 1 minute and then removed, immediately followed by repeatedly rinsing the cornea and the conjunctival sac with 0.9% sodium chloride injection for 1 minute. After that, tobramycin dexamethasone sodium phosphate eye drops were administered. After modeling, the twenty-four animals were divided into four groups, which were: Model group; SZY1905-P30 eye drops-administered group; […] The eye drops were administered 3 times a day, 2 drops each time. The Model group was not administered with any drugs. […] The cornea was then stained with fluorescein sodium, and observed under the slit-lamp microscope and photographed.

[4] = 1st day of the modeling (0 day of administration)
[5] = 7th day of the modeling (6th day of administration)
[6] = 14th day of the modeling (13th day of administration)

| SMILES | Stability, 0 day (%) ([2]; Purified water, 10 mg in 10 mL) | Stability, 8th day (%) ([2]; Purified water, 10 mg in 10 mL) | Stability, 20th day (%) ([2]; Purified water, 10 mg in 10 mL) | Stability, 30th day (%) ([2]; Purified water, 10 mg in 10 mL) | Stability, 0 day (%) ([2]; pH = 5.0, 10 mg in 10 mL) | Stability, 8th day (%) ([2]; pH = 5.0, 10 mg in 10 mL) | Stability, 20th day (%) ([2]; pH = 5.0, 10 mg in 10 mL) | Formation of new blood vessels in the cornea (slit-lamp photographs, FIG. 2), comparison of groups [3] | Number of New Zealand rabbit eyes with appearance of fluorescein-stained spots [3, 4] | Number of New Zealand rabbit eyes with conjunctival congestion [3, 4] | Number of New Zealand rabbit eyes with corneal edema [3, 4] | Number of New Zealand rabbit eyes with neovascularization [3, 4] | Number of New Zealand rabbit eyes with appearance of fluorescein-stained spots [3, 5] | Number of New Zealand rabbit eyes with conjunctival congestion [3, 5] | Number of New Zealand rabbit eyes with corneal edema [3, 5] | Number of New Zealand rabbit eyes with neovascularization [3, 5] | Number of New Zealand rabbit eyes with appearance of fluorescein-stained spots [3, 6] | Number of New Zealand rabbit eyes with conjunctival congestion [3, 6] | Number of New Zealand rabbit eyes with corneal edema [3, 6] | Number of New Zealand rabbit eyes with neovascularization [3, 6] | further results |
| --- | --- | --- | --- | --- | --- | --- | --- | --- | --- | --- | --- | --- | --- | --- | --- | --- | --- | --- | --- | --- | --- |
| C[C@H]1[C@H](OCCC[N+](C)(C)C)O[C@@H]2O[C@@]3(C)CC[C@H]4[C@H](C)CC[C@@H]1C24OO3 [SZY1905-P30, artemisinin quaternary ammonium propyl ether iodate] | 97.09% | 96.91% | 97.04% | 97.28% | 97.23% | 96.90% | 97.01% | can delay the rapid formation of new blood vessels significantly better than the SZY1905-P32 eye drops-administered group | 12 | 2 | 8 | 0 | 6 | 0 | 2 | 3 | 5 | 0 | 1 | 4 | solubility ([1]; aqueous solution adjusted with phosphoric acid and NaOH, 25 °C, pH 5, aqueous buffer): > 1000 µg/mL; solubility ([1]; aqueous solution adjusted with phosphoric acid and NaOH, 25 °C, pH 6, aqueous buffer): > 1000 µg/mL; solubility ([1]; aqueous solution adjusted with phosphoric acid and NaOH, 25 °C, pH 7, aqueous buffer): > 1000 µg/mL; solubility ([1]; aqueous solution adjusted with phosphoric acid and NaOH, 25 °C, pH 8, aqueous buffer): > 1000 µg/mL; solubility ([1]; purified water, 25 °C, water): > 10000 µg/mL; Stability, 30th day (%) ([2]; pH = 5.0, 10 mg in 10 mL): 97.25%; Stability, 0 day (%) ([2]; pH = 6.0, 10 mg in 10 mL): 97.24%; Stability, 8th day (%) ([2]; pH = 6.0, 10 mg in 10 mL): 96.95%; Stability, 20th day (%) ([2]; pH = 6.0, 10 mg in 10 mL): 96.81%; Stability, 30th day (%) ([2]; pH = 6.0, 10 mg in 10 mL): 97.23%; Stability, 0 day (%) ([2]; pH = 7.0, 10 mg in 10 mL): 97.34%; Stability, 8th day (%) ([2]; pH = 7.0, 10 mg in 10 mL): 97.09%; Stability, 20th day (%) ([2]; pH = 7.0, 10 mg in 10 mL): 96.97%; Stability, 30th day (%) ([2]; pH = 7.0, 10 mg in 10 mL): 97.26%; Stability, 0 day (%) ([2]; pH = 8.0, 10 mg in 10 mL): 97.22%; Stability, 8th day (%) ([2]; pH = 8.0, 10 mg in 10 mL): 97.13%; Stability, 20th day (%) ([2]; pH = 8.0, 10 mg in 10 mL): 96.98%; Stability, 30th day (%) ([2]; pH = 8.0, 10 mg in 10 mL): 97.13% |
| C[C@H]1[C@H](OCCCC[N+](C)(C)C)O[C@@H]2O[C@@]3(C)CC[C@H]4[C@H](C)CC[C@@H]1C24OO3.[I-] [SZY1905-P31, artemisinin quaternary ammonium butyl ether iodate] | 98.05% | 97.68% | 97.35% | 97.46% | 98.11% | 97.69% | 97.38% | can delay the rapid formation of new blood vessels significantly better than the SZY1905-P32 eye drops-administered group | 12 | 2 | 9 | 0 | 7 | 0 | 3 | 3 | 6 | 0 | 3 | 3 | solubility ([1]; Purified water, 25° C. (room temperature)): >10000 µg/mL; solubility ([1]; pH 5.0, 25° C. (room temperature)): >1000 µg/mL; solubility ([1]; pH 6.0, 25° C. (room temperature)): >1000 µg/mL; solubility ([1]; pH 7.0, 25° C. (room temperature)): >1000 µg/mL; solubility ([1]; pH 8.0, 25° C. (room temperature)): >1000 µg/mL; Stability, 30th day (%) ([2]; pH = 5.0, 10 mg in 10 mL): 97.48%; Stability, 0 day (%) ([2]; pH = 6.0, 10 mg in 10 mL): 98.16%; Stability, 8th day (%) ([2]; pH = 6.0, 10 mg in 10 mL): 97.64%; Stability, 20th day (%) ([2]; pH = 6.0, 10 mg in 10 mL): 97.39%; Stability, 30th day (%) ([2]; pH = 6.0, 10 mg in 10 mL): 97.48%; Stability, 0 day (%) ([2]; pH = 7.0, 10 mg in 10 mL): 98.26%; Stability, 8th day (%) ([2]; pH = 7.0, 10 mg in 10 mL): 97.85%; Stability, 20th day (%) ([2]; pH = 7.0, 10 mg in 10 mL): 97.57%; Stability, 30th day (%) ([2]; pH = 7.0, 10 mg in 10 mL): 97.58%; Stability, 0 day (%) ([2]; pH = 8.0, 10 mg in 10 mL): 98.14%; Stability, 8th day (%) ([2]; pH = 8.0, 10 mg in 10 mL): 97.64%; Stability, 20th day (%) ([2]; pH = 8.0, 10 mg in 10 mL): 97.33%; Stability, 30th day (%) ([2]; pH = 8.0, 10 mg in 10 mL): 97.49% |
| C[C@H]1[C@H](OCCCN)O[C@@H]2O[C@@]3(C)CC[C@H]4[C@H](C)CC[C@@H]1C24OO3 [SZY1905-P32, reference compound] |  |  |  |  |  |  |  | new vessels have spread to the entire cornea | 10 | 1 | 8 | 0 | 9 | 0 | 4 | 6 | 8 | 0 | 3 | 7 |  |
